Laboratory results as given in ChEMBL document CHEMBL1131691, “Design and synthesis of simplified sordaricin derivatives as inhibitors of fungal protein synthesis” (Bioorg Med Chem Lett, 1999).
pIC50: −log10 of the molar value.

Columns and labels:
[1] = system: Candida albicans; experiment: Inhibitory concentration against Candida albicans 2005E protein synthesis; type: functional, organism-based
[2] = system: Candida albicans; experiment: Minimum inhibitory concentration Candida albicans 2005E cell growth; type: functional

## CC(C)C1=CC2C[C@]3(C=O)C4CCC(C)C4C[C@]2(CO)[C@]13C(=O)O (some centres not stated) [SORDARICIN]
[1]
  pIC50: 6.30
[2]
  MIC: > 376 µM
